Where two headings read alike, the source gives them in different places.
Key:
[1] = test system: MCF-7 (breast adenocarcinoma); assay: Sulforhodamine B in vitro growth inhibition assay, MCF-7; format: cell-based, human; conditions: for Selectivity Index (SI) MCF-10/MCF-7: IC50 in non-cancerogenic cell line / IC50 in cancer cell line; for IC50: Homo sapiens, MCF7, sulforhodamine B assay, 72 h of treatment, IC50 ± SD
Procedure: (§1) For this purpose, a colorimetric sulforhodamine B assay was performed to quantify the cytotoxic effect through their respective IC50 values. Each compound’s serial dilutions (12.5, 25, 50, and 100 µM) were evaluated in triplicate. In our study, the human cancer cell lines used were MCF-7 (breast adenocarcinoma); HT-29 (colorectal adenocarcinoma); PC-3 (prostate adenocarcinoma); and MCF-10 control cells (normal breast epithelium). For comparative purposes, the literature IC50 values of daunorubicin and 5-fluorouracil (5-FU), measured in the same cell lines and under the same experimental conditions, were included. Similarly, drimenol (1) was included for comparative purposes.
(§2) The sulforhodamine B assay was used. Briefly, the cells were set up at 5 × 10^3 cells per well of a 96-well microplate for 18 h. Cells were incubated at 37 °C in a humidified 5% CO2/95% air mixture and treated with the compounds at different concentrations for 72 h. At the end of drug exposure, cells were fixed with 50% trichloroacetic acid at 4 °C. After washing with distilled water, cells were stained with 0.1% sulforhodamine B, dissolved in 1% acetic acid (50 μL/well) for 30 min, and, subsequently, washed with 1% acetic acid to remove the unbound stain. The protein-bound stain was solubilized with 100 μL of 10 mM unbuffered Tris base, and the cell density was determined using a […] (wavelength 540 nm). Results are expressed as IC50 values (μM) ± SD.

[2] = test system: PC-3 (prostate adenocarcinoma); conditions: literature value, same experimental conditions; cited from earlier work
[3] = test system: PC-3 (prostate adenocarcinoma); assay: Sulforhodamine B in vitro growth inhibition assay, PC-3; format: cell-based, human; conditions: for Selectivity Index (SI) MCF-10/PC-3: IC50 in non-cancerogenic cell line / IC50 in cancer cell line; for IC50: Homo sapiens, sulforhodamine B assay, 72 h of treatment, IC50 ± SD
Procedure: as §1, §2

[4] = test system: MCF-10 control cells (normal breast epithelium); conditions: literature value; cited from earlier work
[5] = test system: HT-29 (colorectal adenocarcinoma); assay: Sulforhodamine B in vitro growth inhibition assay, HT-29; format: cell-based, human; conditions: for Selectivity Index (SI) MCF-10/HT-29: IC50 in non-cancerogenic cell line / IC50 in cancer cell line; for IC50: Homo sapiens, HT-29, sulforhodamine B assay, 72 h of treatment, IC50 ± SD
Procedure: as §1, §2

[6] = test system: HT-29 (colorectal adenocarcinoma); design: method as in PMID 25412045; conditions: literature value, same experimental conditions; cited from earlier work
[7] = test system: MCF-7 (breast adenocarcinoma); conditions: cited from earlier work; for IC50: literature value, same experimental conditions
[8] = test system: MCF-10 control cells (normal breast epithelium); assay: Sulforhodamine B in vitro growth inhibition assay, MCF-10 control cells; format: cell-based; conditions: Homo sapiens, MCF10, 72 h of treatment, IC50 ± SD, non-tumoral cells
Procedure: as §1, §2

[9] = test system: caspases 3 and 7 on MCF-7 cells; assay: Caspase-Glo 3/7 assay; format: cell-based, human; conditions: 50 μM, 24 h
Procedure: To determine the cell death type induced by the most promising aryl-drimane esters, we evaluated their capacity to induce apoptosis through the activation of caspases 3 and 7 on MCF-7 cells. For this purpose, 6a, 6e, 6f, 8c, 8f, and 8g were incubated for 24 h on MCF-7 cells at a concentration of 50 μM, close to the IC50 values for cytotoxicity in most compounds. […] In summary, these drimane derivatives induced apoptosis in the MCF-7 cell line, showing a potential antitumoral effect.
The activity of caspase 3/7 in treated MCF-7 cells was determined using a Caspase-Glo-3/7 Assay kit (Promega, UK—Cat. No G8090). The caspase-Glo 3/7 assay is a homogenous, luminescent assay that measures caspase-3 and -7 activities, both key-players in apoptosis. […] Luminescence was proportional to the amount of caspase present. MCF-7 cells (1 × 10^4 cells per well) were grown in a 96-well white plate and were allowed to adhere overnight. The cells were then treated for 24 h with the synthesized compounds (50 µM), with the inclusion of a blank as a control. After treatment, the Caspase-Glo® 3/7 was prepared according to the manufacturer’s guidelines. Briefly, 100 μL of Caspase-Glo 3/7 reagent was added to 100 μL of culture medium containing the cells previously treated in each well. The content was mixed gently by placing the plate on a shaker for 30 s, and the plate was incubated at room temperature in the dark for 1 h before luminescence was read on a luminometer (Berthold Sirius Single Tube Luminometer, Pforzheim, Germany). Fold change in caspase activity was obtained by first subtracting the luminescence value for the blank well from every other value, and then, expressing the average luminescence of each treatment as a fold change with respect to the average luminescence of the negative control.

IC50 [1] [µM]	IC50 [3] [µM]	IC50 [5] [µM]	melting point [°C]	SMILES	Selectivity Index (SI) MCF-10/MCF-7 [1]	IC50 [2] [µM]	Selectivity Index (SI) MCF-10/PC-3 [3]	IC50 [4] [µM]	Selectivity Index (SI) MCF-10/HT-29 [5]	IC50 [6] [µM]	IC50 [7] [µM]	IC50 [8] [µM]	caspases-3/7 activity over the control [9]	cytotoxicity ([7]; two cell lines, ref Montenegro et al.)
–	–	–	–	O=c1[nH]cc(F)c(=O)[nH]1 [5-FU, 5-fluorouracil]	0.02	16.4 ± 0.6	0.03	< 0.5	0.2	2.9 ± 0.7	22.3 ± 0.2	–	–	–
> 100	> 100	> 100	–	COc1cc(C)cc(OC(=O)C2=C(C)CCC3C(C)(C)CCC[C@]23C)c1 (stereo partly drawn) [6b, 3-Methoxy-5-methylphenyl-(8aS)-2,5,5,8a-tetramethyl-3,4,4a,5,6,7,8,8a-octahydronaphthalene-1-carboxylate]	–	–	–	–	–	–	–	67.2 ± 15.3	–	–
> 100	> 100	> 100	124	COC(=O)c1c(C)cc(OC(=O)C2=C(C)CCC3C(C)(C)CCC[C@]23C)cc1O (stereo partly drawn) [6c, 3-Hydroxy-4-(methoxycarbonyl)-5-methylphenyl-(8aS)-2,5,5,8a-tetramethyl-3,4,4a,5,6,7,8,8a-octahydronaphthalene-1-carboxylate]	–	–	–	–	–	–	–	> 100	–	–
> 100	> 100	> 100	128	COC(=O)c1c(C)cc(OC(=O)C2=C(C)CCC3C(C)(C)CCC[C@]23C)c(C)c1O (stereo partly drawn) [6d, 3-Hydroxy-4-(methoxycarbonyl)-2,5-dimethylphenyl-(8aS)-2,5,5,8a-tetramethyl-3,4,4a,5,6,7,8,8a-octahydronaphthalene-1-carboxylate]	–	–	–	–	–	–	–	> 100	–	–
38.3 ± 2.6	52.9 ± 8.2	38.1 ± 2	–	COc1cc(OC(=O)C2=C(C)CCC3C(C)(C)CCC[C@]23C)ccc1C=O (stereo partly drawn) [6e, 4-Formyl-3-methoxyphenyl-(8aS)-2,5,5,8a-tetramethyl-3,4,4a,5,6,7,8,8a-octahydronaphthalene-1-carboxylate]	1.3	–	0.9	–	1.3	–	–	50 ± 8.9	two-fold	–
22.4 ± 1	30.9 ± 2.5	58 ± 3.9	–	COc1cc(C=O)ccc1OC(=O)C1=C(C)CCC2C(C)(C)CCC[C@]12C (stereo partly drawn) [6f, 4-Formyl-2-methoxyphenyl-(8aS)-2,5,5,8a-tetramethyl-3,4,4a,5,6,7,8,8a-octahydronaphthalene-1-carboxylate]	0.7	–	0.5	–	0.3	–	–	16.5 ± 0.9	two-fold	–
> 100	> 100	> 100	–	COc1cc(OC)cc(C(=O)OC[C@H]2C(C)=CCC3C(C)(C)CCC[C@@]32C)c1 (stereo partly drawn) [8a, ((1S,8aS)-2,5,5,8a-tetramethyl-1,4,4a,5,6,7,8,8a-octahydronaphthalen-1-yl)methyl-3,5-dimethoxybenzoate]	–	–	–	–	–	–	–	44.8 ± 3.1	–	–
> 100	> 100	> 100	–	COc1cc(C(=O)OC[C@H]2C(C)=CCC3C(C)(C)CCC[C@@]32C)cc(OC)c1C (stereo partly drawn) [8b, ((1S,8aS)-2,5,5,8a-tetramethyl-1,4,4a,5,6,7,8,8a-octahydronaphthalen-1-yl)methyl 3,5-dimethoxy-4-methylbenzoate]	–	–	–	–	–	–	–	21.2 ± 3.1	–	–
35.9 ± 6.4	> 100	> 100	–	CC1=CCC2C(C)(C)CCC[C@]2(C)[C@H]1COC(=O)c1cc(O)c(C)c(O)c1 (stereo partly drawn) [8c, ((1S,8aS)-2,5,5,8a-tetramethyl-1,4,4a,5,6,7,8,8a-octahydronaphthalen-1-yl)methyl-3,5-dihydroxy-4-methylbenzoate]	–	–	–	–	–	–	–	> 100	two-fold	–
18.4 ± 0.5	33.3 ± 2.9	44.7 ± 6.7	105	COc1cc(C(=O)OC[C@H]2C(C)=CCC3C(C)(C)CCC[C@@]32C)cc(OC)c1O (stereo partly drawn) [8d, ((1S,8aS)-2,5,5,8a-tetramethyl-1,4,4a,5,6,7,8,8a-octahydronaphthalen-1-yl)methyl-4-hydroxy-3,5-dimethoxybenzoate]	0.9	–	0.5	–	0.4	–	–	16.5 ± 0.5	–	–
51 ± 10	76.9 ± 10.2	51.5 ± 3.2	–	COc1cc(C(=O)OC[C@H]2C(C)=CCC3C(C)(C)CCC[C@@]32C)cc(OC)c1OC (stereo partly drawn) [8e, ((1S,8aS)-2,5,5,8a-tetramethyl-1,4,4a,5,6,7,8,8a-octahydronaphthalen-1-yl)methyl-3,4,5-trimethoxybenzoate]	0.6	–	0.4	–	0.6	–	–	32.1 ± 8.3	–	–
6.2 ± 0.5	7.1 ± 1.1	26.2 ± 5.4	–	COc1ccc(C(=O)OC[C@H]2C(C)=CCC3C(C)(C)CCC[C@@]32C)c(OC)c1OC (stereo partly drawn) [8f, ((1S,8aS)-2,5,5,8a-tetramethyl-1,4,4a,5,6,7,8,8a-octahydronaphthalen-1-yl)methyl-2,3,4-trimethoxybenzoate]	–	–	–	–	–	–	–	6.8 ± 0.9	3.5 fold	–
28.7 ± 3.5	27.7 ± 2.6	31.3 ± 2	–	COc1cc(OC)c(C(=O)OC[C@H]2C(C)=CCC3C(C)(C)CCC[C@@]32C)cc1OC (stereo partly drawn) [8g, ((1S,8aS)-2,5,5,8a-tetramethyl-1,4,4a,5,6,7,8,8a-octahydronaphthalen-1-yl)methyl-2,4,5-trimethoxybenzoate]	0.6	–	0.6	–	0.5	–	–	16.3 ± 0.6	3.5 fold	–
–	–	–	–	CC1=CCC2C(C)(C)CCCC2(C)C1CO (stereo not drawn) [Drimenol]	–	> 100	–	–	–	–	> 100	–	–	inactive
